Measurements published in EP0306300B1, “Pyrrolo(1,2-a)imidazole and imidazo(1,2-a)pyridine derivatives and their use as 5-lipoxygenase pathway inhibitors” (SMITHKLINE BEECHAM CORPORATION, priority 1987, dated 1989).
pIC50: −log10 of the molar value. Like-named read-outs stand apart in the source and are kept apart here.

How the values were obtained:
5-Lipoxygenase = molecular target: T1, 5-Lipoxygenase (Rattus norvegicus, UniProt P12527); assay: Assay of 5-lipoxygenase activity in RBL-1 high speed supernatant; format: biochemical; details: read-out: 5-LO IC50
T1 construct: the supernatant was centrifuged at 100,000 x g for 60 min; host or cells: RBL-1 cells (soluble cell extract, high-speed supernatant)
T1 sequence (P12527 1-673): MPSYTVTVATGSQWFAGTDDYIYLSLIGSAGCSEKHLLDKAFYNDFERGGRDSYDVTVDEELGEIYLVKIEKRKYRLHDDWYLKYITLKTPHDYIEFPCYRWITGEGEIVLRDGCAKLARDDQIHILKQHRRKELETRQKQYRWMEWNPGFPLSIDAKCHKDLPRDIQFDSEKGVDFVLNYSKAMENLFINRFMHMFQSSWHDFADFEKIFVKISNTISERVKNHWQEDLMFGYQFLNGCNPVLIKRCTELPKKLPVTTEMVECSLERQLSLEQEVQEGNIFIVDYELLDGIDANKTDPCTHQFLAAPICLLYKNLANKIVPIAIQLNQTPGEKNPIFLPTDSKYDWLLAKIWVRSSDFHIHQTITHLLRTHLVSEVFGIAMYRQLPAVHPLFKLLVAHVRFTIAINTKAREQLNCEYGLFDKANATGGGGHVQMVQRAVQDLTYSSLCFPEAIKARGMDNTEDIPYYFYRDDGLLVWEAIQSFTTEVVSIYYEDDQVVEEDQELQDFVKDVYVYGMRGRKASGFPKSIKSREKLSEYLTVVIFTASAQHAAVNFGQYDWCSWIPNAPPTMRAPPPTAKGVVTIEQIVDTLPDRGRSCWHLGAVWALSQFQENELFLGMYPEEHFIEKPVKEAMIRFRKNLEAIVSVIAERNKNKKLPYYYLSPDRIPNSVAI
Procedure: For in vitro experiments, compounds were dissolved at appropriate concentrations in ethanol (final concentration 1.0%) and then diluted to final concentrations using the buffers indicated in the text.
The activities of these enzymes in extracts of RBL-1 cells were assayed using the method of Jakschik and Lee, Nature, 287, 51-52 (1980). RBL-1 cells were obtained from the American Type Culture Collection (#CRL 1378) and were grown at 37°C (5% CO₂ in air) in spinner culture in MEM supplemented with 10% heat inactivated fetal calf serum. Harvested cells were washed with 50 mM sodium phosphate buffer, pH 7.0, containing 1 mM EDTA and 0.1% gelatin, resuspended in fresh buffer (5 x 10⁷ cells/ml) and disrupted by nitrogen cavitation using the Parr bomb at 750 psi for 10 min. The broken cell extract was then centrifuged at 10,000 x g for 20 minutes (min) and the supernatant was centrifuged at 100,000 x g for 60 min. Aliquots (0.25 mls) of the supernatant were preincubated with or without drugs for 10 min, after which 10 ul CaCl₂ (2 mM) was added and the reaction was initiated with 2.5 »l of 2.5 mM arachidonic acid-1-¹⁴C (final concentration was 25 »M; specific activity 20,000 dpm/nmole). After incubation for 5 minutes at 37°C, the reaction was terminated by addition of 2 volumes (0.5 ml) ice cold acetone and the sample was allowed to deproteinize on ice for 10 minutes prior to centrifugation at 1,000 x g for 10 minutes. The deproteinized supernatant was adjusted to pH 3.5 with 2N formic acid and extracted with 2 volumes of ice cold ethyl acetate. The extracted samples were dried under argon, redissolved in ethyl acetate and applied to Whatman LK5D thin layer chromatography (TLC) plates which were developed using the A-9 solvent system [organic phase of ethyl acetate: […]:acetic acid: water (110:50:20:10)] described by Hamberg and Samuelsson, J. Biol. Chem., 241, 257-263 (1966). Arachidonic acid, 5-HETE, LTB₄ and PGD₂ were quantified with a Berthold LB 2832 autoscanner.
Under these conditions, only the 5-lipoxygenase pathway metabolites were detectable. The 5-HETE and di-HETEs were formed at a linear rate, and […] amounts of the arachidonic acid-1-¹⁴C substrate were utilized.

[1] = test system: arachidonic acid-induced edema in mice; assay: Arachidonic acid-induced mouse ear inflammation (ear swelling); format: in vivo, male Balb/c mice; details: 1 h, 50 mg/kg s.c. or i.p., ear thickness one hour after 2 mg arachidonic acid
[2] = Cytochrome P-450 inhibition (ethoxycoumarin-O-deethylase activity, phenobarbital-induced microsomes); details: rat
cynomolgus monkeys [3] = assay: CNS activity / oral toxicity in cynomolgus monkeys; details: cynomolgus monkey, in vivo
Procedure: Additional monkeys tolerated repeated doses of 45 mg/kg or 30 mg/kg and one animal tolerated an escalating dose schedule of 30-90-120 mg/kg.
The two monkeys administered 400 mg/kg were repeatedly administered this dose for 7 consecutive days; each animal experienced emesis within 1 to 5 hours of dosing after the 1st, 3rd and 4th doses, whereas only the female experienced emesis after the 5th, 6th and 7th doses. A complete necropsy, serum clinical chemistry, hematology and histological examination was completed on both monkeys.

[4] = Log D determination by high pressure liquid chromatography; format: physicochemical; details: hplc ods, mobile phase MeOH:H2O, pH 7.4, read-out: (Log D) (Lipophilicity)
Procedure: The procedure used to determine the log D's listed on Table VI was as follows. A 20 »l sample was injected into a Shandon Hypersil ODS, 5» (100 mm x 4.6 mm ID) column and was eluted using a mobile phase of […] MeOH:H₂O (The aqueous portion was .01 M in KH₂PO₄ and adjusted to pH 7.4 with KOH after mixing the MeOH), at a flow rate of 2 ml per minute. Eluting peaks were detected by UV absorbance at […]. All samples were made up at 0.1 mg/ml. (Retentions were identical at 0.01 mg/ml.)
The data was analyzed by determining the regression line corresponding to the log k′ vs. literature log P of the reference standards.
The reference standards and their literature log P's included NaNO₂, 0.0; acetanalide, 1.16; acetophenone, 1.66; anisole, 2.08; chlorobenzene, 2.84; benzophenone, 3.18; anthracene, 4.45; and pentachlorobenzene, 5.12.

cynomolgus monkeys [5] = assay: CNS activity / oral toxicity in cynomolgus monkeys; format: in vivo
[6] = test system: arachidonic acid-induced edema in mice; assay: Arachidonic acid-induced mouse ear inflammation (ear swelling); format: in vivo, male Balb/c mice; details: mouse, po; read-out: AAEE(MOUSE ED50 mg/kg (po))
Procedure: In the tests used to determine activity as 5-lipoxygenase pathway inhibitors, male Balb/c mice (20-28 g), were used. All mice were obtained from Charles River Breeding Laboratories, Kingston, N.Y. Within a single experiment, mice were age matched.
Reagents were employed as follows: Compounds of Formula (I) were each used as the free base. The compounds were homogenized in 0.5% tragacanth. Compounds were administered by […] at the indicated dose in a final volume of 10 ml/kg.
Arachidonic acid in acetone (2 mg/20 »l) was applied to the inner surface of the left ear. The thickness of both ears was then measured with a dial micrometer one hour after treatment, and the data were expressed as the change in thickness (10⁻³ cm) between treated and untreated ears.
Test compounds were given orally in acid/saline at the times indicated in the text prior to the topical application of arachidonic acid.
Dermatol., 82, 367-371 (1984)].

[7] = LTB4 production by RBL-1 high speed supernatant
[8] = cynomolgus monkey, in vivo, po, 60 mg/kg

Question: With CCOC(=O)CSc1ccc(-c2nc3n(c2-c2ccncc2)CCC3)cc1 [Compound 16, 2-(4-Carbethoxymethylthiophenyl)-3-(4-pyridyl)-6,7-dihydro-[5H]-pyrrolo[1,2-a]imidazole] as the molecule, how does the pIC50 (5-Lipoxygenase; total HETE and Di-HETE production by RBL-1 high speed supernatant) read?
Answer: 4.30

Question: What about the inhibition at 50 mg/kg [1] of the same molecule?
Answer: 15%

Question: Which results are given for COc1ccc(-c2nc3n(c2-c2cccnc2)CCC3)cc1 [Compound 5]?
Answer: pIC50 ([2]; microsomes): < 4.00; inhibition at 50 mg/kg [1]: 34%

Question: What does the source list for Fc1ccc(-c2nc3n(c2-c2ccncc2)CCS3)cc1 [Compound A, 5-(4-pyridyl)-6-(4-fluorophenyl)-2,3-dihydroimidazo[2,1-b]thiazole]?
Answer: Adverse CNS activity (cynomolgus monkeys [3]): +++; chromatographic logD [4]: 2.19; time of death after dosing (cynomolgus monkeys [5]; cynomolgus monkey, in vivo, 90 mg/kg): 1 to 5 h; clinical effects (cynomolgus monkeys [5]; oral 90 mg/kg/day, two consecutive days, 1 female, 1 male, 90 mg/kg/day): caused convulsions and death; pIC50 ([2]; liver microsomes): 6.22; pIC50 ([2]; microsomes): 6.05; ED50 [6]: 27 mg/kg

Question: What does the source list for CS(=O)(=O)c1ccc(-c2nc3n(c2-c2ccncc2)CCC3)cc1 [Compound 3, 2-(4-Methylsulfonylphenyl)-3-(4-pyridyl)-6.7-dihydro-[5H]-pyrrolo[1,2-a]imidazole]?
Answer: pIC50 (5-Lipoxygenase; [7]): < 4.00; pIC50 ([2]; microsomes): < 4.00; inhibition at 50 mg/kg [1]: 3%

Question: Which “CNS toxicity / adverse CNS effects (comparative statement)” value (cynomolgus monkeys [3]) does the source give for [O-][S+]1CCn2c1nc(-c1ccc(F)cc1)c2-c1ccncc1 (stereo not drawn) [B, 5-(4-pyridyl)-6-(4-fluorophenyl)-2,3-dihydroimidazo [2,1-b]thiazole oxide, reference compound] here?
Answer: reduced CNS toxicity

Question: What about the chromatographic logD [4] of the same molecule?
Answer: 1.2

Question: What about the pIC50 ([2]; liver microsomes) of the same molecule?
Answer: 5.30

Question: For COc1ccc(-c2nc3n(c2-c2ccncc2)CCC3)cc1 [Compound C, 2-(4-methoxyphenyl)-3-(4-pyridyl)-6,7-dihydro-[5H]-pyrrolo[1,2-a]imidazole], which “Adverse CNS activity” value (cynomolgus monkeys [3]) is on record?
Answer: +++

Question: And the chromatographic logD [4]?
Answer: 2.14

Question: What about the clinical effects (cynomolgus monkeys [5]; [8]) of the same molecule?
Answer: sedation, loss of consciousness and death of one (male)

Question: What about the “time of death after dosing” value (cynomolgus monkeys [5]; [8]) of the same molecule?
Answer: ≤ 1 h

Question: What about the clinical effects (cynomolgus monkeys [5]; cynomolgus monkey, in vivo, po, 90 mg/kg) of the same molecule?
Answer: death of both animals

Question: What about the clinical effects (cynomolgus monkeys [5]; single oral dose of 90 mg/kg, 1 female, 1 male, 90 mg/kg) of the same molecule?
Answer: caused convulsions and death

Question: And the pIC50 ([2]; liver microsomes)?
Answer: 4.67

Question: What about the ED50 [6] of the same molecule?
Answer: 28 mg/kg

Question: With COc1ccc(-c2nc3n(c2-c2ccccn2)CCC3)cc1 [Compound 4] as the molecule, how does the pIC50 (5-Lipoxygenase; [7]) read?
Answer: < 4.00

Question: What about the inhibition at 50 mg/kg [1] of the same molecule?
Answer: 29%
